melting point: 64 to 66 °C
SMILES: C=CCN1C(=O)c2cccc3c(CNCCOC(=O)C4(C)CCCC5(C)C6CCC(C(C)C)=CC6=CCC45)ccc(c23)C1=O (stereo not shown) [Compound 17, 7-Isopropyl-1,4a-dimethyl-1,2,3,4,4a,4b,5,6,10,10a-decahydro-phenanthrene-1-carboxylic acid 2-[(2-allyl-1,3-dioxo-2,3-dihydro-1H-benzo[de]isoquinolin-6-yl)methylamino]ethyl ester]
